According to publication PMC7816042, “Insights into the Structure-Activity Relationship of Glycosides as Positive Allosteric Modulators Acting on P2X7 Receptors” (Molecular Pharmacology, 2021):

What was measured:
[1] = target: T1, human P2X7 (Homo sapiens, UniProt Q99572); test: YO-PRO-1 dye uptake assay in HEK-hP2X7 cells; type: cell-based; settings: 10 µM glycoside; for PAM effect on ATP dose-response curve: HEK-hP2X7, result in words; for EC50 ratio: average EC50 for ATP + vehicle of each set of experiments used; for Maximum response (fold increase): maximum response defined at 1 mM ATP
T1 construct: expressed in transfected cells
T1 sequence (Q99572 1-595): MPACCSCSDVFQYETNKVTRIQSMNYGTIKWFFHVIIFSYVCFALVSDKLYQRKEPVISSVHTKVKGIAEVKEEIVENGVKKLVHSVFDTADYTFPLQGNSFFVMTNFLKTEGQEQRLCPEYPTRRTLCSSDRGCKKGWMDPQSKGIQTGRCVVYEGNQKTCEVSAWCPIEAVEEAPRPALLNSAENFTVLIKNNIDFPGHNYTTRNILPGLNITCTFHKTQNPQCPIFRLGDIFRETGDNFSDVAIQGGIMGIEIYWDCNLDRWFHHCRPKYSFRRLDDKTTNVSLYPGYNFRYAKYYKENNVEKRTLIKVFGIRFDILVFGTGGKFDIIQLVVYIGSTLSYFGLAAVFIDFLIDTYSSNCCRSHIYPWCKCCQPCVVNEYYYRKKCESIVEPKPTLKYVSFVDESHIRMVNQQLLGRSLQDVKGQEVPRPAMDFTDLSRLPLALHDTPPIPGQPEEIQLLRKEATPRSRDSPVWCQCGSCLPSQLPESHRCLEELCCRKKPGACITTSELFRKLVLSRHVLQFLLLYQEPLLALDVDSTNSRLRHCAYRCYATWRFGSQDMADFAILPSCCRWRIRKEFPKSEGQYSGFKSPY
Method: ATP-induced dye uptake experiments were performed as described previously ([Bidula et al., 2019b]). Briefly, HEK-hP2X7 cells were plated at 2 × 10^4 cells per well (100 μl per well) in complete medium and left overnight to attach to poly-D-lysine–coated 96-well plates. YO-PRO-1 iodide was prepared in a low divalent buffered solution ([…], 2 mM KCl, 13 mM D-glucose, 10 mM HEPES, 0.2 mM CaCl2 pH 7.3) to a final concentration of 2 μM. Medium was removed from the plate using a manual multichannel pipette and YO-PRO-1 containing buffer applied to wells (180 μl per well). […] A Flexstation 3 plate reader (Molecular Devices, Sunnyvale, CA) was used to record YO-PRO-1 fluorescence in HEK-hP2X7 for 300 seconds after the addition of ATP (at 10× final concentration) with/without ginsenoside compounds or vehicle (DMSO). Plates were allowed to warm up to 37°C for 10 minutes before initiating the recording. Baseline recordings were made for 40 seconds before compound addition using the Flexstation 3 fluidics system. YO-PRO-1 fluorescence was measured at 520 nm after excitation at 490 nm (auto cutoff at 495 nm), and the sample interval was 3.5 seconds. Flexstation settings were photomultiplier tube (PMT) medium, six reads per well, pipette height 170, and a rate of injection of 3. Data were acquired using Softmax Pro version 5.4 (Molecular Devices). To analyze the data, area under the dye uptake curve was calculated in Softmax Pro version 5 using zero baseline data with a lag time of 50 seconds (50–300 seconds).
(§1) Results are expressed as means ± S.D. from the indicated number of experiments. For YO-PRO-1 dye uptake and intracellular calcium experiments, each independent experiment used triplicate wells, and the means of the replicates were collated and plotted. Technical replicates were used to ensure reliability of fluorescence values. […] Dose-response curves were plotted by a nonlinear regression fit with variable slope using GraphPad Prism software version 7. Half-maximal responses are expressed as EC50 values with 95% confidence intervals. These values were calculated from the collated data for each compound from three independent experiments. Statistical differences were determined by analysis of the data by one-way ANOVA followed by Dunnett’s multiple comparison test or Sidak’s multiple comparison test using GraphPad Prism version 7. P < 0.05 was the accepted minimum level of significance.

[2] = target: T2, endogenous P2X7 in THP-1 cells (Homo sapiens, UniProt Q99572); test: Fura-2 calcium measurements in THP-1 monocytes; type: cell-based; settings: for Effect on ATP-induced calcium response: 500 µM ATP co-applied with 10 µM glycoside
T2 sequence (Q99572 1-394 limits assumed): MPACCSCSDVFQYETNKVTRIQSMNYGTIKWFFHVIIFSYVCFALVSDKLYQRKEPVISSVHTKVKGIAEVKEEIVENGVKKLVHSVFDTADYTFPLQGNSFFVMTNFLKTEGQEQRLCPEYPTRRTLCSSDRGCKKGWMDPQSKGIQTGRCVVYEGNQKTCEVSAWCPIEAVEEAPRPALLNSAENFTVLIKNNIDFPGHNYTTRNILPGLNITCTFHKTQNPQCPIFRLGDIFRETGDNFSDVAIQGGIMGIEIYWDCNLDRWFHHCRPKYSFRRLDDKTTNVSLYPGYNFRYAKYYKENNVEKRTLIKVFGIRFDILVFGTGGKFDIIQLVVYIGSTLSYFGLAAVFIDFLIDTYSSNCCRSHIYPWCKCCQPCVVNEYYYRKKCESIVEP
Method: THP-1 cells were pelleted by centrifugation (300g, 5 minute), washed, and resuspended in Hanks’ balanced salt solution buffer containing 2 μM fura-2 AM (HelloBio) and 250 μM (±)-sulfinpyrazone. Cells were loaded for 1 hour in a waterbath at 37°C while shielded from light with foil. Loaded cells were washed once with 5 ml Hanks’ balanced salt solution to remove excess fura-2 AM dye. THP-1 cells were then resuspended, counted, and plated at 2 × 10^5 cells per well in a standard clear 96-well plate (NUNC 167008; Thermo Scientific) in low divalent assay buffer without Mg^2+ (145 mM NaCl, 2 mM KCl and 2 mM CaCl2, 13 mM glucose, 10 mM HEPES, pH 7.3) containing 250 μM (±)-sulfinpyrazone. The 10× concentration of agonist (ATP) was prepared in the same assay buffer. ATP was injected automatically into wells at 30 seconds in a Flexstation 3 microplate reader. Ratiometric data were acquired using 340 and 380 nm for excitation wavelengths, 520 nm as the emission wavelength, and six reads per well (PMT medium). Area under the curve was calculated using standard zero baseline normalization with a lag time 0–300 seconds using SoftMax Pro version 5.4 software.
as §1

[3] = system: HEK-hP2X7 cells; test: Cell viability assay (resazurin/Alamar blue) in HEK-hP2X7 cells; type: cell-based, human; settings: 24 hours
Method: HEK-hP2X7 or THP-1 cells were seeded at 5 × 10^3 cells per well in a volume of 100 μl for 24 hours in 96-well plates (Nunclon Edge plates, catalog number 167425; Thermo Scientific). Cells were plated in DMEM:F12 medium or RPMI 1640 medium containing 1% FBS and penicillin/streptomycin for 24 hours in a humidified incubator at 37°C with a constant supply of 5% CO2. Edge wells of the plates were filled with autoclaved distilled water to prevent evaporation of media from wells containing cells. The compounds and ATP were made at 2× final concentration in 1% FBS DMEM:F12 and 100 μl added to the cells for 24 hours. After incubation, resazurin sodium salt (CAS 62758-13-8; Sigma Aldrich) at 0.1 mg/ml in sterile PBS was added to the plate (20 into 200 µl culture medium per well). Cells were incubated for a further 2 hours in a humidified incubator at 37°C with a supply of 5% CO2. A Flexstation 3 microplate reader was used to acquire data. Endpoint fluorescence data were measured using 570 nm excitation wavelength, 600 nm emission wavelength (cutoff at 590 nm), and three reads per well (PMT low). Data were analyzed by performing background correction through subtracting blank medium readings (without cells) from all samples and then normalizing each sample to medium treated cells (control treatment, 100%) as percentage of control.
Results are expressed as means ± S.D. from the indicated number of experiments. For YO-PRO-1 dye uptake and intracellular calcium experiments, each independent experiment used triplicate wells, and the means of the replicates were collated and plotted. Technical replicates were used to ensure reliability of fluorescence values. Cell viability data were normalized to the vehicle control for each experiment after background correction had been performed. Dose-response curves were plotted by a nonlinear regression fit with variable slope using GraphPad Prism software version 7. Half-maximal responses are expressed as EC50 values with 95% confidence intervals. These values were calculated from the collated data for each compound from three independent experiments. Statistical differences were determined by analysis of the data by one-way ANOVA followed by Dunnett’s multiple comparison test or Sidak’s multiple comparison test using GraphPad Prism version 7. P < 0.05 was the accepted minimum level of significance.

Compound	PAM effect on ATP dose-response curve [1]	EC50 ratio [1]	Maximum response (fold increase) [1]	Effect on ATP-induced calcium response [2]	Cell viability in combination with ATP [3]	Maximum response (fold increase) ([1]; listed as gypenoside XVII)	Antagonist effect on ginsenoside-CK potentiated calcium response ([2]; 10 µM antagonist pretreatment, 500 µM ATP + ginsenoside-CK)	Antagonist effect on calcium response to ATP alone ([2]; 500 µM ATP, antagonist pretreatment)
CC(C)=CCC[C@](C)(O)[C@H]1CC[C@]2(C)[C@@H]1[C@H](O)C[C@@H]1[C@@]3(C)CC[C@H](O[C@@H]4O[C@H](CO)[C@@H](O)[C@H](O)[C@H]4O[C@@H]4O[C@H](CO)[C@@H](O)[C@H](O)[C@H]4O)C(C)(C)[C@@H]3CC[C@]12C [Ginsenoside-20(S)-Rg3, 20(S)-ginsenoside-Rg3]	positive modulator activity with a reduced EC50 for ATP and increased maximal response	1.8	2.4 fold	potentiated	could reduce cell viability			
CC(C)=CCC[C@](C)(O[C@@H]1O[C@H](CO[C@@H]2O[C@H](CO)[C@@H](O)[C@H](O)[C@H]2O)[C@@H](O)[C@H](O)[C@H]1O)[C@H]1CC[C@]2(C)[C@@H]1[C@H](O)C[C@@H]1[C@@]3(C)CC[C@H](O[C@@H]4O[C@H](CO)[C@@H](O)[C@H](O)[C@H]4O)C(C)(C)[C@@H]3CC[C@]12C [Gypenoside XVII, gypenoside XVII]		2.4	2.0 fold		neither gypenoside XVII nor 20(R)-Rg3 in combination with ATP affected cell viability	2 fold		
CC(C)=CCC[C@](C)(O[C@@H]1O[C@H](CO)[C@@H](O)[C@H](O)[C@H]1O)[C@H]1CC[C@]2(C)[C@@H]1[C@H](O)C[C@@H]1[C@@]3(C)CC[C@H](O[C@@H]4O[C@H](CO)[C@@H](O)[C@H](O)[C@H]4O[C@@H]4O[C@H](CO)[C@@H](O)[C@H](O)[C@H]4O)C(C)(C)[C@@H]3CC[C@]12C [Ginsenoside-Rd, ginsenoside-Rd]	mixed type I/II effects	3.8	2.77 fold	potentiated	very effective at enhancing cell death			
CC(C)=CCC[C@](C)(O[C@@H]1O[C@H](CO)[C@@H](O)[C@H](O)[C@H]1O)[C@H]1CC[C@]2(C)[C@@H]1[C@H](O)C[C@@H]1[C@@]3(C)CC[C@H](O)C(C)(C)[C@@H]3[C@@H](O)C[C@]12C [Ginsenoside-F1, ginsenoside-F1]	did not potentiate P2X7 responses	1.1	1.46 fold	inactive				
CC(C)=CCC[C@](C)(O[C@@H]1O[C@H](CO)[C@@H](O)[C@H](O)[C@H]1O)[C@H]1CC[C@]2(C)[C@@H]1[C@H](O)C[C@@H]1[C@@]3(C)CC[C@H](O[C@@H]4O[C@H](CO)[C@@H](O)[C@H](O)[C@H]4O)C(C)(C)[C@@H]3CC[C@]12C [Ginsenoside-F2, ginsenoside-F2]	mixed type I/II effect	5.4	2.23 fold	potentiated	could reduce cell viability			
CC(C)=CCC[C@@](C)(O)[C@H]1CC[C@]2(C)[C@@H]1[C@H](O)C[C@@H]1[C@@]3(C)CC[C@H](O[C@@H]4O[C@H](CO)[C@@H](O)[C@H](O)[C@H]4O[C@@H]4O[C@H](CO)[C@@H](O)[C@H](O)[C@H]4O)C(C)(C)[C@@H]3CC[C@]12C [Ginsenoside-20(R)-Rg3, 20(R)-ginsenoside-Rg3]	inactive	1.0	0.94 fold		neither gypenoside XVII nor 20(R)-Rg3 in combination with ATP affected cell viability			
O=C1CSC(=O)N1C(CCc1ccncc1)COc1ccc(-c2cccc([N+](=O)[O-])c2)cc1 (centres unmarked) [AZ11645373, reference compound]							completely abolished	did not dramatically affect
